# Reference: ChEMBL document CHEMBL5244223, “l,8-Naphthalimide based DNA intercalators and anticancer agents. A systematic review from 2007 to 2017” (Eur J Med Chem, 2018)
# What was measured:
# L1210 = test: Antiproliferative activity against mouse L1210 cells assessed as inhibition of cell proliferation incubated for 48 hrs by coulter counter assay; assay type: functional, cell-based; settings: L1210, 48 h
# CCRF-CEM = test: Antiproliferative activity against human CEM cells assessed as inhibition of cell proliferation incubated for 48 hrs by coulter counter assay; assay type: functional, cell-based
# HeLa [1] = test: Antiproliferative activity against human HeLa cells assessed as inhibition of cell proliferation incubated for 48 hrs by coulter counter assay; assay type: functional, cell-based
# [2] = Antiproliferative activity against human HMEC-1 cells assessed as inhibition of cell proliferation incubated for 48 hrs by coulter counter assay; assay type: toxicity, cell-based
# HeLa [3] = test: Cytotoxicity against human HeLa cells assessed as inhibition of cell growth incubated for 48 hrs by MTT assay; assay type: functional, cell-based
# A549 = test: Cytotoxicity against human A549 cells assessed as inhibition of cell growth incubated for 48 hrs by MTT assay; assay type: functional, cell-based; settings: A549, 48 h
# HepG2 = test: Antiproliferative activity against human HepG2 cells assessed as inhibition of cell proliferation incubated for 48 hrs by MTT assay; assay type: functional, cell-based; settings: HepG2, 48 h
# HCT-116 = test: Antiproliferative activity against human HCT-116 cells assessed as inhibition of cell proliferation incubated for 48 hrs by MTT assay; assay type: functional, cell-based; settings: HCT-116, 48 h
# K562 = test: Antiproliferative activity against human K562 cells assessed as inhibition of cell proliferation incubated for 48 hrs by MTT assay; assay type: functional, cell-based; settings: K562, 48 h
# MDA-MB-231 = test: Antiproliferative activity against human MDA-MB-231 cells assessed as inhibition of cell proliferation incubated for 48 hrs by MTT assay; assay type: functional, cell-based; settings: MDA-MB-231, 48 h
# SMMC-7721 = test: Antiproliferative activity against human SMMC-7721 cells assessed as inhibition of cell proliferation incubated for 48 hrs by MTT assay; assay type: functional, cell-based; settings: SMMC-7721, 48 h
IC50 (HepG2),IC50 (HCT-116),IC50 (K562),IC50 (SMMC-7721),SMILES,IC50 (HeLa [3]),IC50 (A549),also measured
,,,,CCOP(=O)(CCCn1cc(CN2C(=O)c3cccc4cccc(c34)C2=O)nn1)OCC,,,IC50 (L1210): > 250 µM; IC50 (CCRF-CEM): > 250 µM; IC50 (HeLa [1]): > 250 µM; IC50 at 48 h [2]: > 250 µM
,,,,CCOP(=O)(CCOCn1cc(CN2C(=O)c3cccc4cccc(c34)C2=O)nn1)OCC,,,IC50 (L1210): > 250 µM; IC50 (CCRF-CEM): > 250 µM; IC50 (HeLa [1]): > 250 µM; IC50 at 48 h [2]: > 250 µM
,,,,CCOP(=O)(CCOCn1cc(CN2C(=O)c3cccc4c(Br)ccc(c34)C2=O)nn1)OCC,,,IC50 (L1210): > 250 µM; IC50 (CCRF-CEM): > 250 µM; IC50 (HeLa [1]): > 250 µM; IC50 at 48 h [2]: > 250 µM
,,,,COc1ccccc1-c1cc(C(F)(F)F)nn1-c1ccc2c3c(cccc13)C(=O)N(CCN(C)C)C2=O,5.06 µM,5.06 µM,
2.86 µM,2.86 µM,2.86 µM,,NCCCCNCCCCNCCCCNCC(=O)NCCCN1C(=O)c2cccc3cccc(c23)C1=O,,,IC50 (MDA-MB-231): 2.86 µM
1.61 µM,,,1.61 µM,NCCCNCCCN1C(=O)c2cccc3cccc(c23)C1=O,,,
,,,,CCCOc1ccccc1-c1cc(C(F)(F)F)nn1-c1ccc2c3c(cccc13)C(=O)N(CCN(C)C)C2=O,5.06 µM,5.06 µM,
,,,,CCCOc1ccc(-c2cc(C(F)(F)F)nn2-c2ccc3c4c(cccc24)C(=O)N(CCN(C)C)C3=O)cc1,5.06 µM,5.06 µM,
22.1 µM,> 50 µM,> 50 µM,22.1 µM,COC(=O)c1ccc2c3c(cccc13)C(=O)N(CCN(C)C)C2=O,,,
1.12 µM,,,1.12 µM,CN(C)CCN1C(=O)c2cccc3c2c(cc2c(NCCCCN4CCCC4)ncnc23)C1=O,,,IC50 (MDA-MB-231): 1.12 µM
1.61 µM,,,1.61 µM,NCCCN1C(=O)c2cccc3cccc(c23)C1=O,,,
,,,,Cc1ccc(-c2cc(C(F)(F)F)nn2-c2ccc3c4c(cccc24)C(=O)N(CCN(C)C)C3=O)cc1,5.06 µM,5.06 µM,
,,,,CCOc1ccc(-c2cc(C(F)(F)F)nn2-c2ccc3c4c(cccc24)C(=O)N(CCN(C)C)C3=O)cc1,5.06 µM,5.06 µM,
,,,,CCCCOc1ccccc1-c1cc(C(F)(F)F)nn1-c1ccc2c3c(cccc13)C(=O)N(CCN(C)C)C2=O,5.06 µM,5.06 µM,
> 50 µM,> 50 µM,> 50 µM,> 50 µM,CCCCCCCCOC(=O)c1ccc2c3c(cccc13)C(=O)N(CCN(C)C)C2=O,,,
1.57 µM,,,1.57 µM,CN(C)CCN1C(=O)c2cccc3c2c(cc2c(NCCCNCCCN)ncnc23)C1=O,,,IC50 (MDA-MB-231): 1.57 µM
,,,,CCCCOc1cccc(-c2cc(C(F)(F)F)nn2-c2ccc3c4c(cccc24)C(=O)N(CCN(C)C)C3=O)c1,5.06 µM,5.06 µM,
,,,,CCCCOc1ccc(-c2cc(C(F)(F)F)nn2-c2ccc3c4c(cccc24)C(=O)N(CCN(C)C)C3=O)cc1,5.06 µM,5.06 µM,
,,,,CCOc1ccccc1-c1cc(C(F)(F)F)nn1-c1ccc2c3c(cccc13)C(=O)N(CCN(C)C)C2=O,5.06 µM,5.06 µM,
25.9 µM,> 50 µM,> 50 µM,13.7 µM,CCOC(=O)c1ccc2c3c(cccc13)C(=O)N(CCN(C)C)C2=O,,,
> 50 µM,> 50 µM,> 50 µM,> 50 µM,CCCOC(=O)c1ccc2c3c(cccc13)C(=O)N(CCN(C)C)C2=O,,,
> 50 µM,> 50 µM,> 50 µM,> 50 µM,CCCCCOC(=O)c1ccc2c3c(cccc13)C(=O)N(CCN(C)C)C2=O,,,
> 50 µM,> 50 µM,> 50 µM,> 50 µM,CCCCOC(=O)c1ccc2c3c(cccc13)C(=O)N(CCN(C)C)C2=O,,,
2.64 µM,,,2.64 µM,NCCCCN1C(=O)c2cccc3c2c(cc2c(=O)[nH]cnc23)C1=O,,,IC50 (MDA-MB-231): 2.64 µM
,,,,CCCOc1cccc(-c2cc(C(F)(F)F)nn2-c2ccc3c4c(cccc24)C(=O)N(CCN(C)C)C3=O)c1,5.06 µM,5.06 µM,
2.86 µM,2.86 µM,2.86 µM,,NCCCNCCCNCC(=O)NCCCN1C(=O)c2cccc3cccc(c23)C1=O,,,IC50 (MDA-MB-231): 2.86 µM
,,,,COc1ccc(-c2cc(C(F)(F)F)nn2-c2ccc3c4c(cccc24)C(=O)N(CCN(C)C)C3=O)cc1OC,5.06 µM,5.06 µM,
> 50 µM,> 50 µM,> 50 µM,> 50 µM,CCCCCCCCCCCCCCOC(=O)c1ccc2c3c(cccc13)C(=O)N(CCN(C)C)C2=O,,,
1.12 µM,,,1.12 µM,CN(C)CCN1C(=O)c2cccc3c2c(cc2c(NCCCN4CCOCC4)ncnc23)C1=O,,,IC50 (MDA-MB-231): 1.12 µM
